Measured values: US20060241301A1, “Urea derivatives and their use as tyrosinkinase inhibitors” (priority 2003, published 2006)

Key:
TIE-2 = TIE-2 (Homo sapiens, UniProt Q02763); test: TIE-2 kinase flashplate assay (phosphorylation of poly(Glu, Tyr), 33P-ATP); assay type: biochemical; details: read-out: Inhibition by TIE-2 IC50
Experimental: The TIE-2 tests can be carried out, for example, analogously to the methods indicated in WO 02/44156.
The assay determines the inhibiting activity of the substances to be tested in the phosphorylation of the substrate poly(Glu, Tyr) by Tie-2 kinase in the presence of radioactive ^33P-ATP. The phosphorylated substrate binds to the surface of a “flashplate” microtitre plate during the incubation time. After removal of the reaction mixture, the microtitre plate is washed a number of times and the radioactivity on its surface is subsequently measured. An inhibiting effect of the substances to be measured results in lower radioactivity compared with an undisturbed enzymatic reaction.

RAF = RAF kinase inhibition; assay type: biochemical

TIE-2, sequence (Q02763 23-1124, species assumed): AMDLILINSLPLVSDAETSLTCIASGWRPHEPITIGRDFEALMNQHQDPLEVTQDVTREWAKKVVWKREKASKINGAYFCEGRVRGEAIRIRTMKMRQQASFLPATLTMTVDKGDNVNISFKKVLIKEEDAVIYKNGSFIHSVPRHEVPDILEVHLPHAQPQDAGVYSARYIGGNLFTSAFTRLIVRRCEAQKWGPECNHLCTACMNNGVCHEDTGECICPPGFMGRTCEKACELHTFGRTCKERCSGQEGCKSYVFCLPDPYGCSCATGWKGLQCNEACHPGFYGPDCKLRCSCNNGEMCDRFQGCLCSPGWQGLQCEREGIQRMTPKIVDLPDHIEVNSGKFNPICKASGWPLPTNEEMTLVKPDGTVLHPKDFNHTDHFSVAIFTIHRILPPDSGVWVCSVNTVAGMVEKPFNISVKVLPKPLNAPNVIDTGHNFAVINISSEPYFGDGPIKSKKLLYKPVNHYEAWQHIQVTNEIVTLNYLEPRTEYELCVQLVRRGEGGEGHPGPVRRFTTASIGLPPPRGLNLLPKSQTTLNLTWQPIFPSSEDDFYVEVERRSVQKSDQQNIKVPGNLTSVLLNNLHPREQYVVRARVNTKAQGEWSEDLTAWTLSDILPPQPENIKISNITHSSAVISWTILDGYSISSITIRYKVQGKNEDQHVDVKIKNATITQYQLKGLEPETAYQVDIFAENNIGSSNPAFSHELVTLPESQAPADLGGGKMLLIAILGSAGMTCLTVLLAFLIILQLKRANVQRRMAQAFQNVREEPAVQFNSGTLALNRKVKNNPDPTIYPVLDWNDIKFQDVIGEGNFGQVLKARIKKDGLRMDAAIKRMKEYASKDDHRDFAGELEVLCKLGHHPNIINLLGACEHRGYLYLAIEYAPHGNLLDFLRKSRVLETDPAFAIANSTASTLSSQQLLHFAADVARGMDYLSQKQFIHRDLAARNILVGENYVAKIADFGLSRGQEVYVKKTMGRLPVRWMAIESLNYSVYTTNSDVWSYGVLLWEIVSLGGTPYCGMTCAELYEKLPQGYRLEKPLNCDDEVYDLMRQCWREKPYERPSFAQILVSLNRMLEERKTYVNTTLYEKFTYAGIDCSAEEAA

Row | IC50 (TIE-2) | Structure (SMILES) | IC50 (RAF)
1 | 32 nM | CNC(=O)c1cc(Oc2ccc(NC(=O)Nc3cc(C(F)(F)F)ccc3F)cc2)ccn1 [No. 2, N-methyl-4-{4-[3-(fluorotrifluoromethylphenyl)ureido]phenoxy}pyridine-2-carboxamide] | 
2 |  | CNC(=O)c1cc(Oc2ccc(NC(=O)Nc3ccc(Cl)c(C(F)(F)F)c3)cc2)ccn1 | 264 nM
3 | 57 nM | O=C(Nc1ccc(Oc2ccc3nsnc3c2)cc1)Nc1cc(C(F)(F)F)ccc1F [A1, 1-[4-(Benzo-1,2,5-thiadiazol-5-yloxy)phenyl]-3-(2-fluoro-5-trifluoromethylphenyl)urea] | 220 nM
